Results published in patent US8470883B2, “Preservative system and composition based on glycinate and hydroxyethyl sulfonate salt combination” (Conopco, Inc., priority 2010, dated 2013).

Test system: Pseudomonas aeruginosa ATCC 9027
Assay: Challenge Test for the Evaluation of Preservative Capacity of Liquid Detergent and Personal Products
Type: cell-based
Settings: aqueous formula, each active component 5%, pH 7.6
Method: Experiments were conducted to evaluate antimicrobial activity against Pseudomonas aeruginosa of aqueous formulas containing sodium hydroxyethyl sulfonate, sodium cocoyl glycinate and combinations of these two materials. Samples were prepared at room temperature by mixing together sodium cocoyl glycinate and/or sodium hydroxyethyl sulfonate and water. The pH was adjusted by addition of aqueous hydrochloric acid to reach a 7.6 value. Amounts of each of the active components was 5%. Challenge Test for the Evaluation of Preservative Capacity of Liquid Detergent and Personal Products Pseudomonas aeruginosa ATCC 9027 obtained from American Type Culture Collection, Manassas, Va. 20108. 20 grams of product were inoculated with 0.2 ml of the microorganism at a level of 1.06E+07 or Log 7. A single inoculation was performed. At 2 day, 7 day, 14 day and 21 day time points after inoculation a 1 gram sample was aseptically removed into a neutralizing fluid (TAT Broth) and plated using Letheen Agar. The plates were incubated at 30° C. for 7 days. At the end of the incubation time the plates were removed and examined for microbial growth. The microorganisms recovered were converted into Log10 and compared to initial inoculum count which then determined the Log Reduction. Logarithmic functions are the inverse of exponential functions. Log reduction was determined by the initial inoculum count minus the counts at each sampling time point.

[1] = 2 day after single inoculation (1.06E+07, Log 7)
[2] = 7 day after single inoculation (1.06E+07, Log 7)
[3] = 14 day after single inoculation (1.06E+07, Log 7)
[4] = 21 day after single inoculation (1.06E+07, Log 7)

Molecule	Log Reduction Value [1]	Log Reduction Value [2]	Log Reduction Value [3]	Log Reduction Value [4]
sodium cocoyl glycinate	1.1	1.1	0.8	0.2
O=S(=O)([O-])CCO.[Na+] [Sodium Hydroxyethyl Sulfonate, sodium hydroxyethyl sulfonate]	1.1	0.9	0.8	0.5
